Assay results taken from US10597388B2, “Pyridazinone herbicides” (FMC CORPORATION, priority 2014, dated 2020).

Legend:
Assay type in all cases: in vivo
[1] = tested on: barnyardgrass (Echinochloa crus-galli); assay: Test A greenhouse herbicide test, pre- and postemergence
Text: (§1) Seeds of plant species selected from barnyardgrass (Echinochloa crus-galli), kochia (Kochia scoparia), ragweed (common ragweed, Ambrosia elatior), ryegrass, Italian (Italian ryegrass, Lolium multiflorum), crabgrass, large (large crabgrass, Digitaria sanguinalis), foxtail, giant (giant foxtail, Setaria faberii), momingglory (Ipomoea spp.), pigweed (Amaranthus retroflexus), velvetleaf (Abutilon theophrasti), wheat (Triticum aestivum), and corn (Zea mays) were planted into a blend of loam soil and sand and treated preemergence with a directed soil spray using test chemicals formulated in a non-phytotoxic solvent mixture which included a surfactant.
(§2) At the same time, plants selected from these crop and weed species and also blackgrass (Alopecurus myosuroides), and galium (catchweed bedstraw, Galium aparine) were planted in pots containing the same blend of loam soil and sand and treated with postemergence applications of test chemicals formulated in the same manner. Plants ranged in height from 2 to 10 cm and were in the one- to two-leaf stage for the postemergence treatment. Treated plants and untreated controls were maintained in a greenhouse for approximately 10 d, after which time all treated plants were compared to untreated controls and visually evaluated for injury. Plant response ratings, summarized in Table A, are based on a 0 to 100 scale where 0 is no effect and 100 is complete control. A dash (-) response means no test result.

kochia (Kochia scoparia) = assay: as above
Text: as §1, §2

[2] = tested on: wheat (Triticum aestivum); assay: as above; conditions: Postemergence; for Wheat plant response rating: 0 to 100 scale, 0 is no effect, 100 is complete control
Text: as §1, §2

corn (Zea mays) = assay: as above; conditions: Postemergence; for Corn plant response rating: 0 to 100 scale, 0 is no effect, 100 is complete control
Text: as §1, §2

[3] = tested on: foxtail, giant (giant foxtail, Setaria faberii); assay: as above
Text: as §1, §2

[4] = tested on: ryegrass, Italian (Italian ryegrass, Lolium multiflorum); assay: as above
Text: as §1, §2

[5] = tested on: ragweed (common ragweed, Ambrosia elatior); assay: as above
Text: as §1, §2

[6] = tested on: pigweed (Amaranthus retroflexus); assay: as above
Text: as §1, §2

[7] = tested on: blackgrass (Alopecurus myosuroides); assay: Test A greenhouse herbicide test, postemergence; conditions: for Blackgrass plant response rating: 0 to 100 scale, 0 is no effect, 100 is complete control
Procedure, shortened: (§3)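 Greenhouse postemergence test: formulated chemicals sprayed on one- to two-leaf plants (2 to 10 cm), grown in loam soil blended with sand. Injury assessed visually about 10 d later against untreated controls, scored 0 (no effect) to 100 (complete control).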

[8] = tested on: galium (catchweed bedstraw, Galium aparine); assay: Test A greenhouse herbicide test, postemergence; conditions: for Galium plant response rating: 0 to 100 scale, 0 is no effect, 100 is complete control
Procedure, shortened: as §3

[9] = Postemergence, 125 g ai/ha, 0 to 100 scale where 0 is no effect and 100 is complete control
[10] = Postemergence, 500 g ai/ha, visual rating after approx. 10 d, 0 to 100 scale (0 no effect, 100 complete control)
[11] = Preemergence, 125 g ai/ha, 0 to 100 scale where 0 is no effect and 100 is complete control
[12] = Preemergence, 500 g ai/ha, 0 to 100 scale where 0 is no effect and 100 is complete control
[13] = 125 g ai/ha, 0 to 100 scale where 0 is no effect and 100 is complete control
[14] = 500 g ai/ha, visual rating after approx. 10 d, 0 to 100 scale (0 no effect, 100 complete control)
[15] = Postemergence, 500 g ai/ha, 0 to 100 scale, 0 is no effect, 100 is complete control
[16] = Preemergence, 500 g ai/ha, 0 to 100 scale, 0 no effect, 100 complete control
[17] = Postemergence, 125 g ai/ha, visual rating after approx. 10 d, 0 to 100 scale (0 no effect, 100 complete control)
[18] = 125 g ai/ha, visual rating after approx. 10 d, 0 to 100 scale (0 no effect, 100 complete control)

Row | Structure (SMILES) | Plant response rating, Barnyardgrass [1, 9] | Barnyardgrass plant response rating [1, 11] | Plant response rating, Kochia (kochia (Kochia scoparia); [9]) | Kochia plant response rating (kochia (Kochia scoparia); [11]) | Plant response rating, Wheat [2, 13] | Plant response rating, Corn (corn (Zea mays); [13]) | Plant response rating, Foxtail, Giant [3, 9] | Foxtail, Giant plant response rating [3, 11] | Plant response rating, Ryegrass, Italian [4, 9] | Plant response rating, Ragweed [5, 9] | Plant response rating, Pigweed [6, 9] | Pigweed plant response rating [6, 11] | Plant response rating, Blackgrass [7, 13] | Plant response rating, Galium [8, 13] | Barnyardgrass plant response rating [1, 15] | Plant response rating, Barnyardgrass [1, 16] | Kochia plant response rating (kochia (Kochia scoparia); [15]) | Wheat plant response rating ([2]; 500 g ai/ha) | Corn plant response rating (corn (Zea mays); 500 g ai/ha) | Foxtail, Giant plant response rating [3, 15] | other results
1 | Cc1sc2ccc(C(F)(F)F)cc2c1-c1c(O)c(Cl)nn(C)c1=O [Compound 140] | 50 | 50 | 30 | 0 | 20 | 20 | 40 | 50 | 70 | 90 | 70 | 50 | 30 | 70 |  |  |  |  |  |  | Plant response rating, Barnyardgrass [1, 10]: 90; Plant response rating, Barnyardgrass [1, 12]: 70; Plant response rating, Kochia (kochia (Kochia scoparia); [10]): 70; Plant response rating, Kochia (kochia (Kochia scoparia); [12]): 30; Plant response rating, Wheat [2, 14]: 70; Plant response rating, Corn (corn (Zea mays); [14]): 30; Plant response rating, Foxtail, Giant [3, 10]: 90; Plant response rating, Foxtail, Giant [3, 12]: 80; Plant response rating, Ryegrass, Italian [4, 10]: 100; Plant response rating, Ryegrass, Italian [4, 12]: 90; Plant response rating, Ragweed [5, 10]: 100; Plant response rating, Ragweed [5, 12]: 90; Plant response rating, Pigweed [6, 10]: 90; Plant response rating, Pigweed [6, 12]: 100; Plant response rating, Blackgrass [7, 14]: 50; Plant response rating, Galium [8, 14]: 90
2 | Cc1nn(C)c(=O)c(-c2cccc3ccc(I)cc23)c1O [Compound 70] | 0 | 0 | 50 | 10 | 0 | 0 | 30 | 0 | 60 | 40 | 80 | 60 | 10 | 70 | 10 | 30 | 60 | 0 | 0 | 25 | Plant response rating, Kochia (kochia (Kochia scoparia); [12]): 40; Plant response rating, Foxtail, Giant [3, 12]: 30; Ryegrass, Italian plant response rating [4, 15]: 80; Ryegrass, Italian plant response rating [4, 11]: 60; Plant response rating, Ryegrass, Italian [4, 12]: 90; Ragweed plant response rating [5, 15]: 70; Ragweed plant response rating [5, 11]: 70; Plant response rating, Ragweed [5, 12]: 80; Pigweed plant response rating [6, 15]: 80; Plant response rating, Pigweed [6, 12]: 100; Blackgrass plant response rating ([7]; 500 g ai/ha): 30; Galium plant response rating ([8]; 500 g ai/ha): 90
3 | Cc1ccc2oc(C)c(-c3c(O)c(-c4ccccc4)nn(C)c3=O)c2c1 [Compound 61] | 0 | 0 | 0 | 0 | 0 | 0 | 0 | 0 | 0 | 0 | 0 | 0 | 0 | 0 | 0 | 0 | 0 | 0 | 0 | 0 | Plant response rating, Kochia (kochia (Kochia scoparia); [16]): 0; Plant response rating, Foxtail, Giant [3, 16]: 0; Ryegrass, Italian plant response rating [4, 15]: 0; Ryegrass, Italian plant response rating [4, 11]: 0; Plant response rating, Ryegrass, Italian [4, 16]: 0; Ragweed plant response rating [5, 15]: 0; Ragweed plant response rating [5, 11]: 0; Plant response rating, Ragweed [5, 16]: 0; Pigweed plant response rating [6, 15]: 0; Plant response rating, Pigweed [6, 16]: 0; Blackgrass plant response rating ([7]; 500 g ai/ha): 0; Galium plant response rating ([8]; 500 g ai/ha): 0
4 | COc1nn(C)c(=O)c(-c2c(C)ccc3ccc(C)cc23)c1O [Compound 30] |  | 0 |  | 0 | 10 |  |  | 0 | 70 |  |  | 80 |  |  | 30 | 10 | 80 | 10 | 0 | 60 | Plant response rating, Barnyardgrass [1, 17]: 0; Plant response rating, Kochia (kochia (Kochia scoparia); [17]): 60; Plant response rating, Kochia (kochia (Kochia scoparia); [16]): 40; Plant response rating, Corn (corn (Zea mays); [18]): 0; Plant response rating, Foxtail, Giant [3, 17]: 0; Plant response rating, Foxtail, Giant [3, 16]: 60; Ryegrass, Italian plant response rating [4, 15]: 60; Ryegrass, Italian plant response rating [4, 11]: 30; Plant response rating, Ryegrass, Italian [4, 16]: 50; Plant response rating, Ragweed [5, 17]: 40; Ragweed plant response rating [5, 15]: 70; Ragweed plant response rating [5, 11]: 0; Plant response rating, Ragweed [5, 16]: 70; Plant response rating, Pigweed [6, 17]: 90; Pigweed plant response rating [6, 15]: 90; Plant response rating, Pigweed [6, 16]: 90; Plant response rating, Blackgrass [7, 18]: 20; Blackgrass plant response rating ([7]; 500 g ai/ha): 60; Plant response rating, Galium [8, 18]: 70; Galium plant response rating ([8]; 500 g ai/ha): 90
